Reference: patent US20250122202A1, “EGFR INHIBITOR, PREPARATION METHOD THEREFOR AND USE THEREOF” (SHANDONG NEW TIME PHARMACEUTICAL CO., LTD., priority 2021, published 2025)

biological target: EGFR (D770-N771 ins NPG T790M) kinase (Homo sapiens (Human), UniProt P00533, INS770NPG/T790M); assay: In-vitro enzyme experiment 1 (HTRF kinase assay), EGFR D770-N771 ins NPG T790M; format: biochemical; settings: not given
Method: (§1) The specific experiment was as follows: • 1. Preparation of 1× concentration kinase buffer • 1 volume of 5 times concentration of an enzyme buffer diluted with 4 volumes of distilled water; 5 mM magnesium chloride; 1 mM DTT; and 1 mM MnCl2. • 2. Test method of activity of compound • a) a compound diluent was transferred to each well of an assay plate (784075, Greiner) using Echo 550; • b) the assay plate was sealed and centrifuged at 1,000 g for 1 min; • c) 2×EGFR (D770-N771 ins NPG T790M) was prepared in a 1× kinase buffer; • d) 5 μl of the 2×EGFR (D770-N771 ins NPG T790M) was added to a 384-well assay plate (784075, Greiner); • e) the assay plate was centrifuged at 1,000 g for 30 s and incubated at room temperature for 10 min; • f) 2× TK-substrate-biotin (2 μM) and ATP were added to the 1× kinase buffer and mixed; • g) the reaction was started after adding 5 μl of the TK-substrate-biotin (2 μM) and ATP mixture; • h) the assay plate was centrifuged at 1,000 g for 30 s; and the assay plate was sealed and incubated at room temperature for 40 min; • i) 4× Sa-XL 665 was prepared in an HTRF detection buffer; • j) 5 μl of the Sa-XL 665 and 5 μl of a TK-antibody-cryptate were added to each well of the assay plate; • k) the assay plate was centrifuged at 1,000 g for 30 s and incubated at room temperature for 1 h; and • l) fluorescence signals at 615 nm (cryptate) and 665 nm (XL665) were read on an Envision 2104 reader. • 3. Data analysis • 3.1 Calculation of ratio (665/615 nm) of each well • 3.2 Calculation of inhibition rate
(§2) [formula] • 3.3 Calculation of IC50 value of compound and drawing dose-effect curve of compound • IC50 values were calculated using GraphPad 6.0 by applying a non-linear regression curve (dose-effect relationship-variable slope) of the logarithm of the compound concentration versus the inhibition rate.
Y=lowest value+(highest value−lowest value)/(1+10^((Log IC50−X)×slope)) • X: logarithm of inhibitor concentration; and Y: inhibition rate. • 3.4 Double test report • 3.4.1 After one tester completed a report, another tester again checked the report to ensure that data analysis was correct. • 3.4.2 The data was exported from the software and manually analyzed. • 3.4.2.1 The rate was converted into the inhibition rate. All the IC50 values were first calculated with the inhibition rate using Prism GraphPad 6.0. • 3.4.2.2 Then the IC50 value was recalculated using the ratio to check the accuracy of the analysis. • 3.4.3 The number of all the compounds was ensured to be correct.

EGFR (D770-N771 ins NPG T790M) kinase, sequence (P00533 other isoform, or with tags, fused parts or gaps T790M/del 1-668/ins NPG behind 770 limits assumed): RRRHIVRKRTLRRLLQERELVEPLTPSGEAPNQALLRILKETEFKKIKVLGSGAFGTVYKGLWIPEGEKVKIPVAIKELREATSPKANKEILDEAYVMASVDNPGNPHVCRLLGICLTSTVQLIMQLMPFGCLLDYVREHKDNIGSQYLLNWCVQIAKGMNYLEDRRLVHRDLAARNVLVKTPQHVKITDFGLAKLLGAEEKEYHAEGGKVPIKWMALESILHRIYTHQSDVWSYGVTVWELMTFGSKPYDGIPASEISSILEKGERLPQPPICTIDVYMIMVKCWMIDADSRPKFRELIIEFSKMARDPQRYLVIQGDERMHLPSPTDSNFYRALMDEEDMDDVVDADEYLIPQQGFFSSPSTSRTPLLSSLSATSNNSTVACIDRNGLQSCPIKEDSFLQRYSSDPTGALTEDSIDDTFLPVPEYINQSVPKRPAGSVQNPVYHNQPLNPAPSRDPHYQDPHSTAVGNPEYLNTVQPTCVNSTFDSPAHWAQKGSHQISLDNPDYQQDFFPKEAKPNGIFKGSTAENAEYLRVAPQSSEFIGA

Compound | IC50 [nM]
C=CC(=O)N1CC[C@@H](Nc2nc(Nc3ccc(N4CCN(C)CC4)cc3)nc3[nH]cc(C(=O)c4ccc(F)cc4)c23)C1 [Example 26] | 6.31
CN1CCN(c2ccc(Nc3nc(NC4CCN(S(C)(=O)=O)CC4)c4c(C(=O)c5ccc(F)cc5)c[nH]c4n3)cc2)CC1 [Example 64] | 93.6
CN1CCN(c2ccc(Nc3nc(NC45CC6CC(C4)C(O)C(C6)C5)c4c(C(=O)c5ccc(F)cc5)c[nH]c4n3)cc2)CC1 (centres unmarked) [Example 71] | 9.27
CCN1CCN(c2ccc(Nc3nc(N[C@H]4CC[C@@H](CO)CC4)c4c(C(=O)c5ccc(F)cc5)c[nH]c4n3)cc2)CC1 [Example 104] | 11.4
C=CC(=O)N1CC[C@@H](Nc2nc(Nc3cnn(C)c3)nc3[nH]cc(C(=O)c4ccc(F)cc4)c23)C1 [Example 109] | 7.27
Cn1cc(Nc2nc(N[C@H]3CC[C@@H](CO)CC3)c3c(C(=O)c4ccc(F)cc4)c[nH]c3n2)cn1 [Example 114] | 18.2
CN1CCC(n2cc(Nc3nc(N[C@H]4CC[C@@H](CO)CC4)c4c(C(=O)c5ccc(F)cc5)c[nH]c4n3)cn2)CC1 [Example 115] | 8.16

system: A549 EGFR-WT; assay: Cell proliferation inhibition experiment (CCK-8), A549; settings: Homo sapiens, A549, 72 h, read-out: cell proliferation inhibition IC50 (μM) A549, 72 h, CCK-8

Compound | IC50 [µM]
CN1CCN(c2ccc(Nc3nc(NC4CCOCC4)c4c(C(=O)c5ccc(F)cc5)c[nH]c4n3)cc2)CC1 [Example 40] | 0.1 to 1
C=CC(=O)N1CC[C@@H](Nc2nc(Nc3cnn(C)c3)nc3[nH]cc(C(=O)c4ccc(F)cc4)c23)C1 [Example 109] | 0.1 to 1
Cn1cc(Nc2nc(N[C@H]3CC[C@@H](CO)CC3)c3c(C(=O)c4ccc(F)cc4)c[nH]c3n2)cn1 [Example 114] | 0.1 to 1
CN1CCC(n2cc(Nc3nc(N[C@H]4CC[C@@H](CO)CC4)c4c(C(=O)c5ccc(F)cc5)c[nH]c4n3)cn2)CC1 [Example 115] | 1 to 2

same assay, conditions: Homo sapiens, A549, 72 h, read-out: cell proliferation inhibition IC50 (μM) A549, 72 h, CCK-8; Table 5 numeric

Compound | IC50 [µM]
C=CC(=O)N1CC[C@@H](Nc2nc(Nc3ccc(N4CCN(C)CC4)cc3)nc3[nH]cc(C(=O)c4ccc(F)cc4)c23)C1 [Example 26] | 0.52
CN1CCN(c2ccc(Nc3nc(NC4CCOCC4)c4c(C(=O)c5ccc(F)cc5)c[nH]c4n3)cc2)CC1 [Example 40] | 0.23

system: PC-9 EGFR-Del19; assay: Cell proliferation inhibition experiment (CCK-8), PC-9; format: cell-based; settings: Homo sapiens, 72 h
Text: (§3) Inhibition rate %=[(A0−AS)/(A0−AC)]×100%.

Compound | IC50 [µM]
CN1CCN(c2ccc(Nc3nc(NC4CCOCC4)c4c(C(=O)c5ccc(F)cc5)c[nH]c4n3)cc2)CC1 [Example 40] | 0.1 to 1
CCN1CCN(c2ccc(Nc3nc(N[C@H]4CC[C@@H](CO)CC4)c4c(C(=O)c5ccc(F)cc5)c[nH]c4n3)cc2)CC1 [Example 104] | < 0.1
C=CC(=O)N1CC[C@@H](Nc2nc(Nc3cnn(C)c3)nc3[nH]cc(C(=O)c4ccc(F)cc4)c23)C1 [Example 109] | < 0.1
Cn1cc(Nc2nc(N[C@H]3CC[C@@H](CO)CC3)c3c(C(=O)c4ccc(F)cc4)c[nH]c3n2)cn1 [Example 114] | < 0.1
CN1CCC(n2cc(Nc3nc(N[C@H]4CC[C@@H](CO)CC4)c4c(C(=O)c5ccc(F)cc5)c[nH]c4n3)cn2)CC1 [Example 115] | 0.1 to 1

system: H1975 EGFR-L858R/T790M; assay: Cell proliferation inhibition experiment (CCK-8), H1975; format: cell-based; settings: Homo sapiens, NCI-H1975, 72 h
Text: as §3

Compound | IC50 [µM]
CCN1CCN(c2ccc(Nc3nc(N[C@H]4CC[C@@H](CO)CC4)c4c(C(=O)c5ccc(F)cc5)c[nH]c4n3)cc2)CC1 [Example 104] | < 0.1
C=CC(=O)N1CC[C@@H](Nc2nc(Nc3cnn(C)c3)nc3[nH]cc(C(=O)c4ccc(F)cc4)c23)C1 [Example 109] | 0.1 to 1
Cn1cc(Nc2nc(N[C@H]3CC[C@@H](CO)CC3)c3c(C(=O)c4ccc(F)cc4)c[nH]c3n2)cn1 [Example 114] | < 0.1
CN1CCC(n2cc(Nc3nc(N[C@H]4CC[C@@H](CO)CC4)c4c(C(=O)c5ccc(F)cc5)c[nH]c4n3)cn2)CC1 [Example 115] | 0.1 to 1

system: KC-0178:NCI-1975 EGFR-L858R/T790M/C797S; assay: Cell proliferation inhibition experiment (CCK-8), KC-0178; format: cell-based; settings: Homo sapiens, 72 h
Text: as §3

Compound | IC50 [µM]
CCN1CCN(c2ccc(Nc3nc(N[C@H]4CC[C@@H](CO)CC4)c4c(C(=O)c5ccc(F)cc5)c[nH]c4n3)cc2)CC1 [Example 104] | 0.1 to 1
Cn1cc(Nc2nc(N[C@H]3CC[C@@H](CO)CC3)c3c(C(=O)c4ccc(F)cc4)c[nH]c3n2)cn1 [Example 114] | 0.1 to 1
CN1CCC(n2cc(Nc3nc(N[C@H]4CC[C@@H](CO)CC4)c4c(C(=O)c5ccc(F)cc5)c[nH]c4n3)cn2)CC1 [Example 115] | 1 to 2

system: KC-1474:PC-9 EGFR-Del19/T790M/C797S; assay: Cell proliferation inhibition experiment (CCK-8), KC-1474; format: cell-based; settings: Homo sapiens, 72 h
Text: as §3

Compound | IC50 [µM]
CN1CCN(c2ccc(Nc3nc(NC4CCOCC4)c4c(C(=O)c5ccc(F)cc5)c[nH]c4n3)cc2)CC1 [Example 40] | < 0.1
CCN1CCN(c2ccc(Nc3nc(N[C@H]4CC[C@@H](CO)CC4)c4c(C(=O)c5ccc(F)cc5)c[nH]c4n3)cc2)CC1 [Example 104] | < 0.1
Cn1cc(Nc2nc(N[C@H]3CC[C@@H](CO)CC3)c3c(C(=O)c4ccc(F)cc4)c[nH]c3n2)cn1 [Example 114] | < 0.1
CN1CCC(n2cc(Nc3nc(N[C@H]4CC[C@@H](CO)CC4)c4c(C(=O)c5ccc(F)cc5)c[nH]c4n3)cn2)CC1 [Example 115] | 0.1 to 1

system: KC-1362 BaF3-EGFR D770-N771 ins NPG cells; assay: Anti-proliferative activity on KC-1362 BaF3-EGFR D770-N771 ins NPG cells; format: cell-based; settings: Ba/F3 EGFR

Compound | IC50 [nM]
C=CC(=O)N1CC[C@@H](Nc2nc(Nc3ccc(N4CCN(C)CC4)cc3)nc3[nH]cc(C(=O)c4ccc(F)cc4)c23)C1 [Example 26] | 150
CN1CCN(c2ccc(Nc3nc(NC4CCN(S(C)(=O)=O)CC4)c4c(C(=O)c5ccc(F)cc5)c[nH]c4n3)cc2)CC1 [Example 64] | 200
CN1CCN(c2ccc(Nc3nc(NC45CC6CC(C4)C(O)C(C6)C5)c4c(C(=O)c5ccc(F)cc5)c[nH]c4n3)cc2)CC1 (centres unmarked) [Example 71] | 70
CCN1CCN(c2ccc(Nc3nc(N[C@H]4CC[C@@H](CO)CC4)c4c(C(=O)c5ccc(F)cc5)c[nH]c4n3)cc2)CC1 [Example 104] | 160
C=CC(=O)N1CC[C@@H](Nc2nc(Nc3cnn(C)c3)nc3[nH]cc(C(=O)c4ccc(F)cc4)c23)C1 [Example 109] | 120
Cn1cc(Nc2nc(N[C@H]3CC[C@@H](CO)CC3)c3c(C(=O)c4ccc(F)cc4)c[nH]c3n2)cn1 [Example 114] | 160
CN1CCC(n2cc(Nc3nc(N[C@H]4CC[C@@H](CO)CC4)c4c(C(=O)c5ccc(F)cc5)c[nH]c4n3)cn2)CC1 [Example 115] | 560

biological target: EGFR D770-N771 ins NPG kinase (Homo sapiens (Human), UniProt P00533, INS770NPG); assay: In-vitro enzyme experiment 1 (HTRF kinase assay), D770-N771 ins NPG kinase; format: biochemical; settings: not given
Sequence (P00533 other isoform, or with tags, fused parts or gaps del 1-668/ins NPG behind 770 limits assumed): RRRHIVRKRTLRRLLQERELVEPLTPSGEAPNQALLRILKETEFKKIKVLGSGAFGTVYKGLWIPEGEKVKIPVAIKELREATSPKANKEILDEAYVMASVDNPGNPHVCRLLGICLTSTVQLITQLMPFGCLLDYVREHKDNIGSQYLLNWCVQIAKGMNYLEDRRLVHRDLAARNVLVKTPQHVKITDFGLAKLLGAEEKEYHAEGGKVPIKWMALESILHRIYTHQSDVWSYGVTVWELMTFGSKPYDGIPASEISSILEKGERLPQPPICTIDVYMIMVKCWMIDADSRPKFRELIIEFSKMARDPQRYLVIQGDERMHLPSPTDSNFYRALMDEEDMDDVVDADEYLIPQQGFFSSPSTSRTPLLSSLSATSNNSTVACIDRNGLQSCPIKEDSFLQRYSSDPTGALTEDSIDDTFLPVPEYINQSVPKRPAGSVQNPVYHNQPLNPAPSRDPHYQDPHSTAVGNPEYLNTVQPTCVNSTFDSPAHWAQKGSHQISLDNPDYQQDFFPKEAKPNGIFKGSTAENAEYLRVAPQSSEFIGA

Compound | IC50 [nM]
C=CC(=O)N1CC[C@@H](Nc2nc(Nc3ccc(N4CCN(C)CC4)cc3)nc3[nH]cc(C(=O)c4ccc(F)cc4)c23)C1 [Example 26] | 3.52
CN1CCN(c2ccc(Nc3nc(NC4CCN(S(C)(=O)=O)CC4)c4c(C(=O)c5ccc(F)cc5)c[nH]c4n3)cc2)CC1 [Example 64] | 24.2
CN1CCN(c2ccc(Nc3nc(NC45CC6CC(C4)C(O)C(C6)C5)c4c(C(=O)c5ccc(F)cc5)c[nH]c4n3)cc2)CC1 (centres unmarked) [Example 71] | 4.54
CCN1CCN(c2ccc(Nc3nc(N[C@H]4CC[C@@H](CO)CC4)c4c(C(=O)c5ccc(F)cc5)c[nH]c4n3)cc2)CC1 [Example 104] | 2.72
C=CC(=O)N1CC[C@@H](Nc2nc(Nc3cnn(C)c3)nc3[nH]cc(C(=O)c4ccc(F)cc4)c23)C1 [Example 109] | 3
Cn1cc(Nc2nc(N[C@H]3CC[C@@H](CO)CC3)c3c(C(=O)c4ccc(F)cc4)c[nH]c3n2)cn1 [Example 114] | 4.12
CN1CCC(n2cc(Nc3nc(N[C@H]4CC[C@@H](CO)CC4)c4c(C(=O)c5ccc(F)cc5)c[nH]c4n3)cn2)CC1 [Example 115] | 2.46

system: HCC827 EGFR-Del19; assay: Cell proliferation inhibition experiment (CCK-8), HCC827; format: cell-based; settings: Homo sapiens, 72 h
Text: as §3

Compound | IC50 [µM]
CN1CCN(c2ccc(Nc3nc(NC4CCOCC4)c4c(C(=O)c5ccc(F)cc5)c[nH]c4n3)cc2)CC1 [Example 40] | 0.1 to 1
C=CC(=O)N1CC[C@@H](Nc2nc(Nc3cnn(C)c3)nc3[nH]cc(C(=O)c4ccc(F)cc4)c23)C1 [Example 109] | 0.1 to 1

biological target: EGFR-Del19/T790M/C797S kinase (Homo sapiens, UniProt P00533, C797S/T790M, form not given); assay: In-vitro enzyme experiment 2 (HTRF kinase assay), EGFR Del19 T790M C797S; format: biochemical; settings: read-out: enzyme inhibition IC50 (nM) EGFR-Del19/T790M/C797S
Sequence (P00533 25-1210 T790M/C797S limits assumed, form open): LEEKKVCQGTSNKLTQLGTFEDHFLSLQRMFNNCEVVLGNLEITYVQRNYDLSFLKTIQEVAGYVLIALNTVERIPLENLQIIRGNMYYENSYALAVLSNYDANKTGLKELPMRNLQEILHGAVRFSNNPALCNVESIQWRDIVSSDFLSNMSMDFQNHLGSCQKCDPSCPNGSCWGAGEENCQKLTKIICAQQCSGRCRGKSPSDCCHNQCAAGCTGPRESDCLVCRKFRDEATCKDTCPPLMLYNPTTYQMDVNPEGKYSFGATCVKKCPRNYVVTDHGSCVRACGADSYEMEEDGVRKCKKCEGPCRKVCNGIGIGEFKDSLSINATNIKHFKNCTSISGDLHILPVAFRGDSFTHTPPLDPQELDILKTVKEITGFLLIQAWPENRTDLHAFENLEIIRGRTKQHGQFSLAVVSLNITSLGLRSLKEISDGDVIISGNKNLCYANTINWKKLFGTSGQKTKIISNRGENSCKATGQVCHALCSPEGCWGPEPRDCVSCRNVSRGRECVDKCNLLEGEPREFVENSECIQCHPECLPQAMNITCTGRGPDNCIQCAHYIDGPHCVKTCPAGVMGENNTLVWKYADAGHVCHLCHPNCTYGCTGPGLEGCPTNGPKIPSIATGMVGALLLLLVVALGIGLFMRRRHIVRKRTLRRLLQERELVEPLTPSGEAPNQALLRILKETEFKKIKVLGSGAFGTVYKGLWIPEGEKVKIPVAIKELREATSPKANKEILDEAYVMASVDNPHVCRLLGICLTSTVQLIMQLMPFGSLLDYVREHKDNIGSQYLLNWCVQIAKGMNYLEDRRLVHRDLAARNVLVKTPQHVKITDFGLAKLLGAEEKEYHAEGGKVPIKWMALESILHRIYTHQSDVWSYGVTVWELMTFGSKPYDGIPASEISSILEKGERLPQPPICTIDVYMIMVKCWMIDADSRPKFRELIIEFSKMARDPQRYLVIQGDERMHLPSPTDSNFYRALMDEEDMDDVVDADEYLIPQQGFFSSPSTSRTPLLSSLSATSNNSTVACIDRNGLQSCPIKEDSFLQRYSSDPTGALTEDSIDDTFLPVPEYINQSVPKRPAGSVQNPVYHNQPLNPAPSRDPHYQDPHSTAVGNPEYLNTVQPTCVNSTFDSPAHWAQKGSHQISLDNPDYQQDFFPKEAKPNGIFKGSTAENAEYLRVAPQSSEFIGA
Method: as §1, with “Preparation of 1× concentration kinase buffer • 1 volume of 5 times concentration of an enzyme buffer diluted with 4 volumes of distilled water; 5 mM magnesium chloride; 1 mM DTT; and 1 mM MnCl2. • 2.” left out
as §2
The preparation of the kinase buffer, the test method of the activity of the compound, and the data analysis referred to the relevant definitions in example 117, wherein step c) of the test method of the activity of the compound was replaced by preparing 2×EGFR Del19 T790M C797S in the 1× kinase buffer.

Compound | IC50 [nM]
CN1CCN(c2ccc(Nc3nc(NC4CCN(S(C)(=O)=O)CC4)c4c(C(=O)c5ccc(F)cc5)c[nH]c4n3)cc2)CC1 [Example 64] | 100 to 600
CN1CCN(c2ccc(Nc3nc(NC45CC6CC(C4)C(O)C(C6)C5)c4c(C(=O)c5ccc(F)cc5)c[nH]c4n3)cc2)CC1 (centres unmarked) [Example 71] | 10 to 100
CCN1CCN(c2ccc(Nc3nc(N[C@H]4CC[C@@H](CO)CC4)c4c(C(=O)c5ccc(F)cc5)c[nH]c4n3)cc2)CC1 [Example 104] | < 10
Cn1cc(Nc2nc(N[C@H]3CC[C@@H](CO)CC3)c3c(C(=O)c4ccc(F)cc4)c[nH]c3n2)cn1 [Example 114] | < 10
CN1CCC(n2cc(Nc3nc(N[C@H]4CC[C@@H](CO)CC4)c4c(C(=O)c5ccc(F)cc5)c[nH]c4n3)cn2)CC1 [Example 115] | < 10
